{
  "source": "patent US20110020434A1",
  "about": "“NANOPARTICLE ARSENIC-PLATINUM COMPOSITIONS” (priority 2005, published 2011)",
  "key": {"[1]": {"test_system": "IM-9 (human lymphoblast B cells)", "assay_type": "cell-based", "conditions": "48 h drug treatment", "excerpt": "(§1) Cell culture. SU-DHL-4 (human lymphoma B cells) was from the Deutsche Sammlung von Mikroorganismen and Zellkulturen GmbH (DSMZ, Braunschweig, Germany). MM.1S (human multiple myeloma B cells) was previously established in the laboratory of Prof. Steven. T. Rosen (Robert H. Lurie Comprehensive Cancer Center, Northwestern University). IM-9 (human lymphoblast B cells), MDA-MB-231 (human breast adenocarcinoma cells), OVCAR-3 (human ovary adenocarcinoma cells), KB (human nasopharyngeal epidermal carcinoma cells, FR), and MCF-7 (human breast carcinoma cells, FR^-) (Sonvico et al. J. Drug Del. Sci. Tech. 2005, 15, 407-410, Chen et al. Mol. Cancer Ther. 2009, in press., herein incorporated by reference in their entireties) were purchased from ATCC (Manassas, Va., USA). All Cells were maintained at 37° C. in an incubator with 5% CO2 and harvested in the exponential phase of growth. SU-DHL-4, IM-9, and MM.1S cells were cultured in RPMI-1640 supplemented with 10% FBS, 2 mM glutamine, 100 units/mL penicillin-streptomycin, and 2.5 μg/mL Amphotericin B. MDA-MB-231 cells were cultured in DMEM/F12 supplemented with 5% cds-FBS, 2 mM glutamine, 100 units/mL penicillin-streptomycin, and 0.1% human insulin solution. OVCAR-3 cells were cultured in RPMI-1640 supplemented with 20% FBS, 100 units/mL penicillin-streptomycin, and 0.1% human insulin solution. MCF-7 cells was cultured in EMEM supplemented with 10% FBS, 2 mM glutamine, 100 units/mL penicillin-streptomycin and 2.5 μg/mL Amphotericin B. KB cells were cultured in EMEM supplemented with 10% FBS and 50 units/mL penicillin-streptomycin. For folate-targeting experiments, KB cells were transferred into folate-deficient RPMI-1640 medium for more than one week before each experiment (Lee et al. J. Biol. Chem. 1994, 269, 3198-3204, herein incorporated by reference in its entirety).\n(§2) The MTS assay is one of most high throughput and economical assays for detecting viability of cancer cells. Briefly, SU-DHL-4 and IM-9 (40,000 cells/mL), and MM.1S (250,000 cells/mL) were treated with drugs and plated in quadruplicate (100 uL/well) onto 96-well plates. For MDA-MB-231 and OVCAR-3, 20,000 cells/mL were plated in quadruplicate (100 uL/well) onto 96-well plates, incubated overnight and then treated with drugs. After incubation for the indicated period at 37° C., the MTS/PMS solution (20 μL/well) was added to each well and the plates were further incubated for 4 h at 37° C. before reading the absorbance at 490 nm. Cell growth rates were expressed as a function of drug concentration on a logarithmic scale. The IC50 values (the drug concentration required for 50% inhibition of cell growth) were determined by fitting to a sigmoidal dose-response curve using Origin 6.0 software (Microcal Software, Inc., Northampton, USA). In the case of the 1.5 h (SEE FIG. 8B) or 2 h (SEE FIG. 9B) time periods, the cells treated with drugs were first incubated for 1.5 h or 2 h at 37° C., then washed twice with PBS to remove un-associated drugs or liposomes, and further incubated up to 48 h (FIG. 8b) or 72 h (FIG. 9b) in drug-free medium, followed by the MTS assay."}, "[2]": {"test_system": "MDA-MB-231 (human breast adenocarcinoma cells)", "assay_type": "cell-based", "conditions": "72 h drug treatment", "excerpt": "as §1, §2"}, "[3]": {"test_system": "SU-DHL-4 (human lymphoma B cells)", "assay_type": "cell-based", "conditions": "48 h drug treatment", "excerpt": "as §1, §2"}, "[4]": {"test_system": "MM.1S (human multiple myeloma B cells)", "test": "MTS cell proliferation cytotoxicity assay", "assay_type": "cell-based", "conditions": "72 h drug treatment", "excerpt": "as §1, §2"}, "[5]": {"test_system": "OVCAR-3 (human ovary adenocarcinoma cells)", "test": "MTS cell proliferation cytotoxicity assay", "assay_type": "cell-based", "conditions": "72 h drug treatment", "excerpt": "as §1, §2"}, "[6]": {"test_system": "KB (FR+) human nasopharyngeal epidermal carcinoma cells", "test": "Guava ViaCount cytotoxicity assay, folate-targeted liposomes", "assay_type": "cell-based", "excerpt": "as §1\n(§3) The in vitro cytotoxicities of folate-targeted liposomes against KB and MCF-7 cells were determined by Guave ViaCount assay (Stearns et al. Cancer Res. 2006, 66, 673-681, Donaldson et al. Cell Death Differ 2009, 16, 125-138, herein incorporated by reference in their entireties) (The MTS assay is not applicable in this case because the folate moiety interferes with the reactions of MTS/PMS agents and seriously impairs accuracy of cell viability (Chen et al. Mol. Cancer Ther. 2009, in press.)). Cells were first plated in 48-well plates at a density of 30,000-60,000 cells/mL, 0.2 mL per well. After 24 h at 37° C., the media were replaced with drug solutions. Cells were thus incubated with drugs continuously for 72 h, or exposed to drugs for 3 h at 37° C., then washed with PBS ×2 and further incubated up to 72 h in drug-free medium. The same Pt concentrations of aqua-cisPt were used as in f-NB(As, Pt). Cell viability was determined by Guave ViaCount (Stearns et al. Cancer Res. 2006, 66, 673-681, Donaldson et al. Cell Death Differ 2009, 16, 125-138, herein incorporated by reference in their entireties), using a Guava EasyCyte Mini flow cytometer (Guava Technologies, Hayward, Calif.). Cells, after released from plates by trypsinization (using 0.05% trypsin/0.02% EDTA), were stained with the Guava Viacount agent, which contains two fluorescent dyes, one cell permeable and one impermeable. This allows viable and dead cell numbers to be accurately determined by Guava Viacount software. Cell growth rates were expressed as a function of drug concentration on a logarithmic scale. The IC50 values (the drug concentration required for 50% inhibition of cell growth) were determined by fitting to a sigmoidal dose-response curve using Origin 6.0 (Microcal Software, Inc., Northampton, USA) (SEE FIGS. 12F-G and Table 3)."}, "[7]": {"test_system": "MCF-7 (FR−) human breast carcinoma cells", "test": "Guava ViaCount cytotoxicity assay, folate-targeted liposomes", "assay_type": "cell-based", "excerpt": "as §1, §3"}, "MCF-7 (FR−) cells": {"test_system": "MCF-7 (FR−) cells", "test": "Quantitative cellular drug uptake by ICP-MS", "assay_type": "cell-based, human", "conditions": "3 h at 37° C.", "excerpt": "as §1, with “OVCAR-3 cells were cultured in RPMI-1640 supplemented with 20% FBS, 100 units/mL penicillin-streptomycin, and 0.1% human insulin solution. MCF-7 cells was cultured in EMEM supplemented with 10% FBS, 2 mM glutamine, 100 units/mL penicillin-streptomycin and 2.5 μg/mL Amphotericin B. KB cells were cultured in EMEM supplemented with 10% FBS and 50 units/mL penicillin-streptomycin. For folate-targeting experiments, KB cells were transferred into folate-deficient RPMI-1640 medium for more than one week before each experiment (Lee et al. J. Biol. Chem. 1994, 269, 3198-3204, herein incorporated by reference in its entirety).” left out\nCells were plated, 24 h before each experiment, in 6-well plates with 500,000 cells per well. […] Cell-associated drug was expressed as As and Pt atoms per cell (SEE FIG. 12E and Table 4."}, "[8]": {"test_system": "human lymphoma cell line SU-DHL-4 (CD20-positive)", "test": "MTS cytotoxicity assay of liposomal Ni-arsenic and Rituxan conjugate", "assay_type": "cell-based", "conditions": "72 h (three days) at 37° C.; read-out: IC50 (arsenic level), SU-DHL-4", "procedure": "The human lymphoma B cell line of SU-DHL-4 (CD20-positive) was obtained from the American Type Culture Collection (Rockville, MD, USA). Cells were cultured in RPMI 1640 (Invitrogen Corporation) supplemented with 10% fetal bovine serum, 2 mM glutamine, 100 units/mL penicillim, 100 ug/mL streptomycin, and 2.5 ug/mL fungizone. Cells were maintained at 37° C. in an incubator with 5% CO2 and harvested in the exponential phase of growth.\nCells (25,000 cells/mL) were treated with various drugs and plated in 96-well plates. After incubation for 72 h at 37° C., the MTS solution (20 uL/well) was added to each well and the plates were further incubated for 4 h at 37° C. before the absorbance readings at 490 nm.\nIn a parallel experiment, SU-DHL-4 cells (100,000 cells/mL) were treated with various drugs and plated in 96-well plates. After incubation at 37° C. for 20 min, cells were washed twice using 200 uL/well of PBS and refilled with 100 uL/well of fresh medium and incubated for an additional 71.6 h. The MTS solution (20 uL/well) was added to each well and the plates were further incubated for 4 h at 37° C. before taking the absorbance readings at 490 nm."}},
  "note": "Read-outs that look alike come from different tables or passages of the source.",
  "data": [
    {"compound": "Arsenic trioxide [As2O3]", "values": [
      {"measurement": "IC50", "setting": "[1]; based on As concentration", "value": "2.1 ± 0.03", "unit": "µM"},
      {"measurement": "IC50", "setting": "[2]; based on As concentration", "value": 10, "unit": "µM"},
      {"measurement": "IC50", "setting": "[3]; based on As concentration", "value": 3.7, "unit": "µM"},
      {"measurement": "IC50", "setting": "[4]; based on As concentration", "value": 0.58, "unit": "µM"},
      {"measurement": "IC50", "setting": "[5]; based on As concentration", "value": "2.7 ± 1.1", "unit": "µM"},
      {"measurement": "IC50", "setting": "[6]; continuous 72 h incubation, As concentration, read-out: KB (FR^+), IC50 (μM), 72 h", "value": "5.2 ± 1", "unit": "µM"},
      {"measurement": "IC50", "setting": "[6]; read-out: KB (FR^+), IC50 (μM), 3 h, 3 h exposure, washed, drug-free medium up to 72 h, As concentration", "value": "> 200", "unit": "µM"},
      {"measurement": "IC50", "setting": "[7]; continuous 72 h incubation, As concentration, read-out: MCF-7 (FR^−), IC50 (μM), 72 h", "value": "6.9 ± 1.7", "unit": "µM"},
      {"measurement": "IC50", "setting": "[7]; read-out: MCF-7 (FR^−), IC50 (μM), 3 h, 3 h exposure, washed, drug-free medium up to 72 h, As concentration", "value": "63.7 ± 22.3", "unit": "µM"},
      {"measurement": "Cellular uptake, MCF-7 (FR^−), As", "setting": "MCF-7 (FR−) cells; 10 μM arsenic", "value": "9.4 ± 2.3 ×10^7 atoms/cell"},
      {"measurement": "IC50", "setting": "[8]", "value": 1.45, "unit": "µM"}
    ]},
    {"compound": "CC(=O)[O-].CC(=O)[O-].N.N.O.O.[Pt+2]", "note": "[Aqua-cisPt, [cis-(NH3)2Pt(OH2)2](OAc)2]", "values": [
      {"measurement": "IC50", "setting": "[1]; based on Pt concentration", "value": "1 ± 0.01", "unit": "µM"},
      {"measurement": "IC50", "setting": "[2]; based on Pt concentration", "value": 17.9, "unit": "µM"},
      {"measurement": "IC50", "setting": "[3]; based on Pt concentration", "value": 5.5, "unit": "µM"},
      {"measurement": "IC50", "setting": "[5]; based on Pt concentration", "value": "2.6 ± 0.8", "unit": "µM"},
      {"measurement": "IC50", "setting": "[6]; continuous 72 h incubation, Pt concentration, read-out: KB (FR^+), IC50 (μM), 72 h", "value": "1.3 ± 0.2", "unit": "µM"},
      {"measurement": "IC50", "setting": "[6]; read-out: KB (FR^+), IC50 (μM), 3 h, 3 h exposure, washed, drug-free medium up to 72 h, Pt concentration", "value": "9.7 ± 2.5", "unit": "µM"},
      {"measurement": "IC50", "setting": "[7]; continuous 72 h incubation, Pt concentration, read-out: MCF-7 (FR^−), IC50 (μM), 72 h", "value": "12.2 ± 0.4", "unit": "µM"},
      {"measurement": "IC50", "setting": "[7]; read-out: MCF-7 (FR^−), IC50 (μM), 3 h, 3 h exposure, washed, drug-free medium up to 72 h, Pt concentration", "value": "88.9 ± 14.4", "unit": "µM"},
      {"measurement": "Cellular uptake, MCF-7 (FR^−), Pt", "setting": "MCF-7 (FR−) cells; 10 μM arsenic / 8 μM Pt", "value": "0.24 ± 0.07 ×10^7 atoms/cell"}
    ]},
    {"compound": "N.N.[Cl][Pt][Cl]", "note": "[CisPt, cis-diamine dichloroplatinum(II)]", "values": [
      {"measurement": "IC50", "setting": "[1]; based on Pt concentration", "value": "0.6 ± 0.2", "unit": "µM"},
      {"measurement": "IC50", "setting": "[2]; based on Pt concentration", "value": 14, "unit": "µM"},
      {"measurement": "IC50", "setting": "[3]; based on Pt concentration", "value": 3.5, "unit": "µM"},
      {"measurement": "IC50", "setting": "[4]; based on Pt concentration", "value": 1.43, "unit": "µM"},
      {"measurement": "IC50", "setting": "[5]; based on Pt concentration", "value": "2 ± 0.01", "unit": "µM"}
    ]}
  ]
}
